Results taken from ChEMBL document CHEMBL1201862, “PubChem BioAssay data set” (2004).
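Following 48 hours of exposure in 96-well plates, responses at five concentrations were used to interpolate endpoints linearly. The concentration for 50% growth inhibition is given as GI50.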 Active and inactive are the calls of the source. Rule as the data show it: active = GI50 up to about 1.1 µM and inactive = higher. Non-standard residues stand in square brackets, D forms with d. Residues, ends and D or L forms follow the SMILES beside them. ξ: configuration not given here. *: point of attachment. ξF = NC(Cc1ccccc1)C(=O)O; Cbz = O=C(OCc1ccccc1)*

What was measured:
Assay in all cases: growth of human tumour cells (NCI), 48 h
[1] = system: U-251
[2] = system: NCI-H522
[3] = system: HCC 2998
[4] = system: SF-295
[5] = system: NCI-H226
[6] = system: UACC-257
[7] = system: SK-MEL-28
[8] = system: HCT-15
[9] = system: M14
[10] = system: A549
[11] = system: OVCAR-3
[12] = system: DU-145
[13] = system: A498
[14] = system: T47D
[15] = system: SK-MEL-2
[16] = system: MDA-MB-435
[17] = system: SN12C

| SMILES | GI50 [1] | GI50 [2] | GI50 [3] | GI50 [4] | GI50 [5] | GI50 [6] | GI50 [7] | GI50 [8] [µM] | GI50 [9] | GI50 [10] | GI50 [11] | GI50 [12] | GI50 [13] | GI50 [14] | GI50 [15] | GI50 [16] | GI50 [17] |
| --- | --- | --- | --- | --- | --- | --- | --- | --- | --- | --- | --- | --- | --- | --- | --- | --- | --- |
| CCOC(=O)c1nc2ccc(C(F)(F)F)cc2nc1Nc1ccc(OC)cc1 | 27.5 µM (inactive) | 36.5 µM (inactive) | > 100 µM (inactive) | 26.9 µM (inactive) | 32.5 µM (inactive) | > 100 µM (inactive) | > 100 µM (inactive) | > 100 | 84.1 µM (inactive) | 50.1 µM (inactive) | 27.7 µM (inactive) | > 100 µM (inactive) | 44.8 µM (inactive) | > 100 µM (inactive) | 71.9 µM (inactive) | > 100 µM (inactive) | – |
| CN1C(=O)N/C(=C\c2ccc(S(=O)(=O)NN)cc2)C1=O | > 100 µM (inactive) | – | > 100 µM (inactive) | > 100 µM (inactive) | > 100 µM (inactive) | > 100 µM (inactive) | > 100 µM (inactive) | > 100 | > 100 µM (inactive) | > 100 µM (inactive) | > 100 µM (inactive) | > 100 µM (inactive) | > 100 µM (inactive) | > 100 µM (inactive) | > 100 µM (inactive) | > 100 µM (inactive) | > 100 µM (inactive) |
| C=C1c2nc3ccccc3n2C=C(c2ccc(Cl)cc2)N1c1ccc(OCCN2CCOCC2)cc1 | 30.5 µM (inactive) | – | 37.9 µM (inactive) | – | > 100 µM (inactive) | 22.7 µM (inactive) | 28.9 µM (inactive) | 12.7 | 15.7 µM (inactive) | 27.4 µM (inactive) | 37.2 µM (inactive) | 49.8 µM (inactive) | > 100 µM (inactive) | 21.4 µM (inactive) | 6.73 µM (inactive) | 12.6 µM (inactive) | > 100 µM (inactive) |
| Cc1cc(O)c2c3c(ccc2c1)C(=O)c1c(O)cccc1C3=O [TETRANGULOL] | 21 µM (inactive) | 0.957 µM (active) | 5.15 µM (inactive) | 17.4 µM (inactive) | – | 2.28 µM (inactive) | > 100 µM (inactive) | 1.92 | 0.675 µM (active) | 5.14 µM (inactive) | 0.397 µM (active) | 4.56 µM (inactive) | > 100 µM (inactive) | 5.14 µM (inactive) | 10.3 µM (inactive) | 0.179 µM (active) | 72.6 µM (inactive) |
| CC(=O)O[C@H]1CCC2[C@@H]3CCC4Nc5oncc5C[C@]4(C)C3CC[C@@]21C (some centres undefined) | > 10 µM (inactive) | – | > 10 µM (inactive) | > 10 µM (inactive) | > 10 µM (inactive) | > 10 µM (inactive) | > 10 µM (inactive) | > 10 | > 10 µM (inactive) | > 10 µM (inactive) | 2.55 µM (inactive) | > 10 µM (inactive) | 4.62 µM (inactive) | > 10 µM (inactive) | > 10 µM (inactive) | > 10 µM (inactive) | > 10 µM (inactive) |
| CCOC(=O)CNC(=O)C(Cc1ccccc1)NC(=O)OCc1ccccc1 (centres undefined) (Cbz-[ξF]-Gly-OEt) | > 100 µM (inactive) | – | > 100 µM (inactive) | > 100 µM (inactive) | > 100 µM (inactive) | – | – | > 100 | > 100 µM (inactive) | > 100 µM (inactive) | > 100 µM (inactive) | > 100 µM (inactive) | 53.8 µM (inactive) | 71.9 µM (inactive) | – | > 100 µM (inactive) | > 100 µM (inactive) |
| CCOC(=O)/C=C(/N=P(c1ccccc1)(c1ccccc1)c1ccccc1)C(F)(F)F | – | 61.9 µM (inactive) | 22 µM (inactive) | > 10 µM (inactive) | > 10 µM (inactive) | > 10 µM (inactive) | > 10 µM (inactive) | > 10 | > 10 µM (inactive) | > 10 µM (inactive) | > 10 µM (inactive) | > 10 µM (inactive) | > 10 µM (inactive) | 22.1 µM (inactive) | > 10 µM (inactive) | > 10 µM (inactive) | > 10 µM (inactive) |
| Cc1ccc(-n2cc(-c3ccc(Cl)cc3)c3c(NNC(=S)NCc4ccccc4)ncnc32)cc1 | 5.36 µM (inactive) | 4.53 µM (inactive) | – | 6.76 µM (inactive) | 92.7 µM (inactive) | 12.6 µM (inactive) | 16.1 µM (inactive) | 6.08 | 10.5 µM (inactive) | 4 µM (inactive) | 4.56 µM (inactive) | 24.9 µM (inactive) | 23.6 µM (inactive) | 24.8 µM (inactive) | 3.17 µM (inactive) | 8.02 µM (inactive) | 7.21 µM (inactive) |
| O=C(C=P(c1ccccc1)(c1ccccc1)c1ccccc1)C12CC3CC(CC(C3)C1)C2 | 17.7 µM (inactive) | 6.55 µM (inactive) | 16.8 µM (inactive) | – | – | 17.2 µM (inactive) | 16.8 µM (inactive) | 13.4 | 16 µM (inactive) | 16.7 µM (inactive) | 14.9 µM (inactive) | 19.1 µM (inactive) | 18.8 µM (inactive) | 16.1 µM (inactive) | 15.8 µM (inactive) | 12.9 µM (inactive) | 15.9 µM (inactive) |
